The test system of assay [1] is T47D human breast cancer cells. Description: T47D Human Breast Cancer Cells Assay (alkaline phosphatase, luminescence). Format: cell-based. On the procedure:
T47D Human Breast Cancer Cells Assay
T47D human breast cancer cells were grown in RPMI medium without phenol red (Invitrogen) containing 10% (v/v) heat-inactivated fetal bovine serum (FBS; Hyclone), 1% (v/v) penicillin-streptomycin (Invitrogen), 1% (w/v) glutamine (Invitrogen), and […] insulin (Sigma). Incubation conditions were 37° C. in a humidified 5% (v/v) carbon dioxide environment.
The cells were plated in 96-well tissue culture plates at 10,000 cells per well in assay medium [RPMI medium without phenol red (Invitrogen) containing 5% (v/v) charcoal-treated FBS (Hyclone) and 1% (v/v) penicillin-streptomycin (Invitrogen)]. Two days later, the medium was decanted and test compound or control were added at a final concentration of 0.1% (v/v) dimethyl sulfoxide in fresh assay medium. Twenty-four hours later, an alkaline phosphatase assay was performed using a SEAP kit (BD Biosciences Clontech, Palo Alto, Calif.). Briefly, the medium was decanted and the cells were fixed for 30 minutes at room temperature with 5% (v/v) formalin (Sigma). The cells were washed once with room temperature Hank's buffered saline solution (Invitrogen). Equal volumes (0.05 mL) of 1× Dilution Buffer, Assay Buffer and 1:20 substrate/enhancer mixture were then added. After 1 hour incubation at room temperature in the dark, the lysate was transferred to a white 96-well plate (Dynex) and luminescence was read using a LuminoSkan Ascent (Thermo Electron, Woburn, Mass.).
(§1) Representative compounds of the present invention were tested according to the procedures described in Examples 45 and 46 above, with results as listed in Table 2 below.

For assay [2], the system named is A549 Human lung carcinoma cells. Description: A549 Human Lung Cell Assay (transfected cells, dexamethasone challenge, luciferase read-out). Type of assay: cell-based. To be noted: test compound 10 min then dexamethasone challenge, 24 h, Luc-assay, read-out: A 549 IC50. As to the method:
A549Human Lung Cell Assay
A549Human lung carcinoma cells were grown in F-12K Nutrient Mixture containing 10% (v/v) fetal bovine serum (FBS; Invitrogen), 2 mM glutamine and 0.15% sodium dicarbonate (Invitrogen).
A549 cells were split 1 to 3 in 175 cm tissue culture flask. The cells were incubated at 37° C. in CO2 incubator until the cells were 95% confluent (typically 24-30 hours).
The following solutions were prepared in sterile tubes: (a) Solution A 1.5 μg/ml of DNA in 8.5 ml OPTI-MEM I Reduced Serum Medium. (GIBCO cat# 31985) and (b) Solution B: 6 μl/ml of DMRIE-C Reagent into […] OPTI-MEM I. The two solutions were combined and mixed gently, then incubated at room temperature for 40 minutes.
The A549 cells prepared above were washed with […] of OPTI-MEM I. The medium was removed and 17 ml of the lipid-DNA complex solution was overlayed onto cells. The cells ere then incubated for 16 h at 37° C. in CO2 incubator. The DNA-containing medium was removed and 30 ml of growth medium was added. (5% Charcoal treated FBS) After 5-6 h, the cells were seeded in a 96 well plate and the cells incubated overnight at 37° C. in CO2 incubator.
To each well was then added 5 μl of test compounds and the cells incubated at 37° C. for 10 min. 5 μL of dexamathasone (CAS [50-02-2]), was then added to each well for challenger and the cells incubated at 37° C. in CO2 incubator for 24 h. 100 μl of Luc-assay buffer was then added into each cell well and the cells incubated for 30 min at room temperature. A 150 μL sample from each well was then transferred into a DYNEX Microlitel plate and read on Top-counter.
as §1

The mark [3] stands for this setting: Homo sapiens, T47D, 24 h, read-out: T47D IC50 (nM), T47D cells, 24 h with test compound, alkaline phosphatase assay (SEAP kit).
The mark [4] stands for this setting: read-out: T47D IC50, T47D cells, 24 h with test compound, alkaline phosphatase assay (SEAP kit).

Where two headings read alike, the source gives them in different places.

In general, IC50 refers to the concentration at which inhibition is half-maximal.

On to `COc1ccc([C@@H]2OC[C@@]3(C)C(CC[C@@]3(O)C#Cc3ccc(C(F)(F)F)cc3)C3CCC4=CC(=O)CCC4=C32)cc1` (stereo partly shown) [Compound 22, 1-Hydroxy-10-(4-methoxy-phenyl)-12a-methyl-1-(4-trifluoromethylphenylethynyl)-2,3,3a,3b,4,5,9,10,12,12a-decahydro-1H,8H-11-oxa-naphtho[2,1-e]azulen-7-one], for which the IC50 in assay [1] (setting [3]) was above 1000 nM; in assay [2] (Homo sapiens, A549, A549 cells) it was above 3000 nM.

With `COc1ccc([C@H]2OC[C@@]3(C)C(CC[C@@]3(O)C#Cc3ccc(C(C)(C)C)cc3)C3CCC4=CC(=O)CCC4=C32)cc1` (stereo partly shown) [Compound 9, 1-(4-tert-Butyl-phenylethynyl)-1-hydroxy-10-(4-methoxy-phenyl)-12a-methyl-2,3,3a,3b,4,5,9,10,12,12a-decahydro-1H,8H-11-oxa-naphtho[2,1-e]azulen-7-one], the half-maximal inhibitory concentration (IC50) stood at 264 nM in assay [1] (setting [3]) and 626 nM in assay [2] (Homo sapiens, A549, A549 cells).

On to `C#C[C@]1(O)CCC2C3CCC4=CC(=O)CCC4=C3[C@@H](c3ccc(OC)cc3)OC[C@@]21C` (stereo partly shown) [Compound 12, 1-Ethynyl-1-hydroxy-10-(4-methoxy-phenyl)-12a-methyl-2,3,3a,3b,4,5,9,10,12,12a-decahydro-1H,8H-11-oxa-naphtho[2,1-e]azulen-7-one], for which the IC50 is above 1000 nM in assay [1] (setting [3]) and 118 nM in assay [2] (Homo sapiens, A549, A549 cells).

For `C=CC[C@]1(O)CCC2C3CCC4=CC(=O)CCC4=C3[C@H](c3ccc(OC)cc3)OC[C@@]21C` (stereo partly drawn) [Compound 18, 1-Allyl-1-hydroxy-10α-(4-methoxy-phenyl)-12a-methyl 2,3,3a,3b,4,5,9,10,12,12a-decahydro-1H,8H-11-oxa-naphtho[2,1-e]azulen-7-one], the half-inhibitory concentration (IC50) is above 1000 nM in assay [1] (setting [3]) and above 3000 nM in assay [2] (Homo sapiens, A549, A549 cells).

Turning to `C=C(C)[C@]1(O)CCC2C3CCC4=CC(=O)CCC4=C3[C@@H](c3ccc(SC)cc3)OC[C@@]21C` (stereo partly shown) [Compound 2, 1-Hydroxy-1-isopropenyl-12a-methyl-10-(4-methylsulfanyl-phenyl)-2,3,3a,3b,4,5,9,10,12,12a-decahydro-1H,8H-11-oxa-naphtho[2,1-e]azulen-7-one], the IC50 in assay [1] (setting [3]) is 5.12 nM; in assay [2] (Homo sapiens, A549, A549 cells), 58.2 nM.

With `COc1ccc([C@H]2OC[C@@]3(C)C(CC[C@@]3(O)C#Cc3ccc(C(F)(F)F)cc3)C3CCC4=CC(=O)CCC4=C32)cc1` (stereo partly shown) [Compound 21, 1-Hydroxy-10-(4-methoxy-phenyl)-12a-methyl-1-(4-trifluoromethylphenylethynyl)-2,3,3a,3b,4,5,9,10,12,12a-decahydro-1H,8H-11-oxa-naphtho[2,1-e]azulen-7-one], the IC50 in assay [1] (setting [4]) and in assay [2] (A549 cells) was above 1000 nM each time.

On to `CN(C)c1ccc([C@H]2OC[C@]3(C)C(=O)CCC3C3CCC4=CC(=O)CCC4=C32)cc1` (stereo partly shown) [Compound 10, 10-(4-Dimethylamino-phenyl)-12a-methyl-2,3,3a,3b,4,5,9,10,12,12a-decahydro-8H-11-oxa-naphtho[2,1-e]azulene-1,7-dione], for which the concentration for half-maximal inhibition (IC50) in assay [1] (setting [3]) is 1800 nM; in assay [2] (Homo sapiens, A549, A549 cells), above 3000 nM.

In the case of `CC#C[C@]1(O)CCC2C3CCC4=CC(=O)CCC4=C3[C@@H](c3ccc(OC)cc3)OC[C@@]21C` (stereo partly shown) [Compound 14, 1-Hydroxy-10-(4-methoxy-phenyl)-12a-methyl-1-prop-1-ynyl-2,3,3a,3b,4,5,9,10,12,12a-decahydro-1H,8H-11-oxa-naphtho[2,1-e]azulen-7-one], the half-inhibitory concentration (IC50) in assay [1] (setting [3]) is above 1000 nM; in assay [2] (Homo sapiens, A549, A549 cells) it was 46 nM.

On to `CSc1ccc([C@H]2OC[C@@]3(C)C(CC[C@@]3(O)C(F)(F)C(F)(F)F)C3CCC4=CC(=O)CCC4=C32)cc1` (stereo partly shown) [Compound 5], for which the IC50 in assay [1] (setting [3]) amounted to 54 nM; in assay [2] (Homo sapiens, A549, A549 cells), 7.06 nM.

`CC#C[C@]1(O)CCC2C3CCC4=CC(=O)CCC4=C3[C@@H](c3ccc(N(C)C)cc3)OC[C@@]21C` (stereo partly shown) [Compound 7, 10-(4-Dimethylamino-phenyl)-1-hydroxy-12a-methyl-1-prop-1-ynyl-2,3,3a,3b,4,5,9,10,12,12a-decahydro-1H,8H-11-oxa-naphtho[2,1-e]azulen-7-one]: the IC50 in assay [1] (setting [3]) came to 116 nM; in assay [2] (Homo sapiens, A549, A549 cells), 16.2 nM.

For the compound `C=CC[C@]1(O)CCC2C3CCC4=CC(=O)CCC4=C3[C@@H](c3ccc(OC)cc3)OC[C@@]21C` (stereo partly shown) [Compound 17, 1-Allyl-1-hydroxy-10-(4-methoxy-phenyl)-12a-methyl 2,3,3a,3b,4,5,9,10,12,12a-decahydro-1H,8H-11-oxa-naphtho[2,1-e]azulen-7-one], the IC50 is above 1000 nM in assay [1] (setting [3]) and 114 nM in assay [2] (Homo sapiens, A549, A549 cells).

On to `COc1ccc([C@H]2OC[C@@]3(C)C(CC[C@@]3(O)C#Cc3ccccc3)C3CCC4=CC(=O)CCC4=C32)cc1` (stereo in doubt) [Compound 23, 1-Hydroxy-10-(4-methoxy-phenyl)-12a-methyl-1-phenylethynyl-2,3,3a,3b,4,5,9,10,12,12a-decahydro-1H,8H-11-oxa-naphtho[2,1-e]azulen-7-one], for which the IC50 in assay [1] (setting [4]) stood at 260 nM; in assay [2] (A549 cells), 237 nM.

Consider `COc1ccc([C@H]2OC[C@@]3(C)C(CC[C@@]3(O)C#Cc3ccc(C(F)(F)F)cc3)C3CCC4=CC(=O)CCC4=C32)cc1` (stereo partly shown) [Compound 6, 1-Hydroxy-10-(4-methoxy-phenyl)-12a-methyl-1-(4-trifluoromethyl-phenylethynyl)-2,3,3a,3b,4,5,9,10,12,12a-decahydro-1H,8H-11-oxa-naphtho[2,1-e]azulen-7-one], for which the concentration for half-maximal inhibition (IC50) in assay [1] (setting [4]) was 83 nM; in assay [2] (A549 cells), 109 nM.

`C#C[C@]1(O)CCC2C3CCC4=CC(=O)CCC4=C3[C@H](c3ccc(OC)cc3)OC[C@@]21C` (stereo partly shown) [Compound 13, 1-Ethynyl-1-hydroxy-10-(4-methoxy-phenyl)-12a-methyl 2,3,3a,3b,4,5,9,10,12,12a-decahydro-1H,8H-11-oxa-naphtho[2,1-e]azulen-7-one]: the IC50 in assay [1] (setting [3]) is above 1000 nM; in assay [2] (Homo sapiens, A549, A549 cells) it was 367 nM.

Source of the values: patent US7390831B2, “Tetracyclic steroid derivatives useful as progesterone receptor modulators” (Janssen Pharmaceutica N.V., priority 2006, dated 2008).
